Source: patent US20070043049A1, “Substituted heterocyclic diarylamine analogues” (Neurogen Corporation, priority 2003, published 2007)

The molecules below were run against T1, human capsaicin receptor (Homo sapiens, UniProt Q8NER1) (assay: Calcium mobilization assay, determination of antagonist activity (Example 6)). Conditions: 50% decrease in fluorescence response of cells expressing human capsaicin receptor exposed to capsaicin.
T1 construct: pBK-CMV expression construct encoding the full length human capsaicin receptor; expressed in transfected cells
Type: cell-based
Method: A cDNA encoding full length human capsaicin receptor (SEQ ID NO:1, 2 or 3 of U.S. Pat. No. 6,482,611) was subcloned in the plasmid pBK-CMV (Stratagene, La Jolla, Calif.) for recombinant expression in mammalian cells.
Human embryonic kidney (HEK293) cells were transfected with the pBK-CMV expression construct encoding the full length human capsaicin receptor using standard methods. The transfected cells were selected for two weeks in media containing G418 (400 μg/ml) to obtain a pool of stably transfected cells. Independent clones were isolated from this pool by limiting dilution to obtain clonal stable cell lines for use in subsequent experiments.
Cells transfected with expression plasmids (as described in Example 4) and thereby expressing human capsaicin receptor are seeded and grown to 70-90% confluency in FALCON black-walled, clear-bottomed 96-well plates (#3904, BECTON-DICKINSON, Franklin Lakes, N.J.). The culture medium is emptied from the 96 well plates and FLUO-3 AM calcium sensitive dye (Molecular Probes, Eugene, Oreg.) is added to each well (dye solution: 1 mg FLUO-3 AM, 440 μL DMSO and 440 μl 20% pluronic acid in DMSO, diluted 1:250 in Krebs-Ringer HEPES (KRH) buffer (25 mM HEPES, 5 mM KCl, 0.96 mM NaH2PO4, 1 mM MgSO4, 2 mM CaCl2, 5 mM glucose, 1 mM probenecid, pH 7.4), 50 μl diluted solution per well). Plates are covered with aluminum foil and incubated at 37° C. for 1-2 hours in an environment containing 5% CO2. After the incubation, the dye is emptied from the plates, and the cells are washed once with KRH buffer, and resuspended in KRH buffer.
To measure the ability of a test compound to agonize or antagonize a calcium mobilization response in cells expressing capsaicin receptors to capsaicin or other vanilloid agonist, the EC50 of the agonist capsaicin is first determined. An additional 20 μl of KRH buffer and 1 μl DMSO is added to each well of cells, prepared as described above. 100 μl capsaicin in KRH buffer is automatically transferred by the FLIPR instrument to each well. Capsaicin-induced calcium mobilization is monitored using either FLUOROSKAN ASCENT (Labsystems; Franklin, Mass.) or FLIPR (fluorometric imaging plate reader system; Molecular Devices, Sunnyvale, Calif.) instruments. Data obtained between 30 and 60 seconds after agonist application are used to generate an 8-point concentration response curve, with final capsaicin concentrations of 1 nM to 3 μM. KALEIDAGRAPH software (Synergy Software, Reading, Pa.) is used to fit the data to the equation: y=a*(1/(1+(b/x)^c)) to determine the 50% excitatory concentration (EC50) for the response. In this equation, y is the maximum fluorescence signal, x is the concentration of the agonist or antagonist (in this case, capsaicin), a is the Emax, b corresponds to the EC50 value and c is the Hill coefficient. Determination of Agonist Activity
Test compounds are dissolved in DMSO, diluted in 20 μl KRH buffer so that the final concentration of test compounds in the assay well is between 1 μM and 5 μM, and added to cells prepared as described above. The 96 well plates containing prepared cells and test compounds are incubated in the dark, at room temperature for 0.5 to 6 hours. It is important that the incubation not continue beyond 6 hours. Just prior to determining the fluorescence response, 100 μl capsaicin in KRH buffer at twice the EC50 concentration determined as described above is automatically added by the FLIPR instrument to each well of the 96 well plate for a final sample volume of 200 μl and a final capsaicin concentration equal to the EC50. The final concentration of test compounds in the assay wells is between 1 μM and […]. […] The concentration of antagonist required to provide a 50% decrease, relative to the response observed in the presence of capsaicin and without antagonist, is the IC50 for the antagonist, and is preferably below 1 micromolar, 100 nanomolar, 10 nanomolar or 1 nanomolar.

T1 sequence (Q8NER1 whole entry): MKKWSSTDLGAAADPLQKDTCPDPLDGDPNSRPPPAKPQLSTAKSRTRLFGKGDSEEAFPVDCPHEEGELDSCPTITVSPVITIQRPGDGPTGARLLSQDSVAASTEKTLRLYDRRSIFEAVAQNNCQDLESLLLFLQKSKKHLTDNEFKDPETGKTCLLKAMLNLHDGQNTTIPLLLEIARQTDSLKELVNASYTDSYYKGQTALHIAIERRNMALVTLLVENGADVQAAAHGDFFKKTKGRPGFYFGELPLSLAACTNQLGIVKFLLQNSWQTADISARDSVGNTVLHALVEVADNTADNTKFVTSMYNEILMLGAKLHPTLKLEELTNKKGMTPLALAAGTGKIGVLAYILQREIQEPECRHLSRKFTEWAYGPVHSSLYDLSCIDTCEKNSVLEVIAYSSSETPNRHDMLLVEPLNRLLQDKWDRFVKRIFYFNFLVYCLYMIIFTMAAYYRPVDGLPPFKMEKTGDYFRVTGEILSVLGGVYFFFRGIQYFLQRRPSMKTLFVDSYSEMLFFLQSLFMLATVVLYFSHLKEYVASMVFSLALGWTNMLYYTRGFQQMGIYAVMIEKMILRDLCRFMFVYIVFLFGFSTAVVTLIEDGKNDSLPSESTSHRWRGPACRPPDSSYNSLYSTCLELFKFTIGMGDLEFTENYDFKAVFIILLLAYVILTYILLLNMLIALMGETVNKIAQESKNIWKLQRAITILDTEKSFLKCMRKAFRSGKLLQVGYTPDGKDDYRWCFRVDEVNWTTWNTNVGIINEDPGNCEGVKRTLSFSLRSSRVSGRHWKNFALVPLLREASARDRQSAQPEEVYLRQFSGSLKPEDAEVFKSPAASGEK

| IC50 [nM] | SMILES |
| --- | --- |
| ≤ 1000 | OCc1nc(Nc2ccc(F)c(F)c2)cc(N2CCN(c3ncccc3C(F)(F)F)CC2)n1 [Compound 110, {4-(3,4-Difluoro-phenylamino)-6-[4-(3-trifluoromethyl-pyridin-2-yl)-piperazin-1-yl]-pyrimidin-2-yl}-methanol] |
| ≤ 1000 | Cc1ccccc1Nc1nc(N2CCOCC2)cc(N2CCN(c3ncccc3C(F)(F)F)CC2)n1 [Compound 85, {4-Morpholin-4-yl-6-[4-(3-trifluoromethyl-pyridin-2-yl)-piperazin-1-yl]pyrimidin-2-yl}-o-tolyl-amine] |
| ≤ 1000 | CCCN(C)c1nc(Nc2ccc(C(F)(F)F)cc2)nc(N2CCN(c3ncccc3Cl)C[C@H]2C)n1 [Compound 30, 6-[4-(3-Chloro-pyridin-2-yl)-2-methyl-piperazin-1-yl]-N-methyl-N-propyl-N′-(4-trifluoromethyl-phenyl)-[1,3,5]triazine-2,4-diamine (R)] |
| ≤ 1000 | C=CCN(CC=C)c1nc(Nc2ccc(C(F)(F)F)cc2)nc(N2CCN(c3ncccc3Cl)C[C@H]2C)n1 [Compound 32, N,N-Diallyl-6-[4-(3-chloro-pyridin-2-yl)-2-methyl-piperazin-1-yl]-N′-(4-trifluoromethyl-phenyl)-[1,3,5]triazine-2,4-diamine (R)] |
| ≤ 1000 | CN(C)c1nc(Nc2ccc(C(F)(F)F)cc2)nc(N2CCN(c3ncccc3Cl)CC2)n1 [Compound 44, 6-[4-(3-Chloro-pyridin-2-yl)-piperazin-1-yl]-N,N-dimethyl-N′-(4-trifluoromethyl-phenyl)-[1,3,5]triazine-2,4-diamine] |
| ≤ 1000 | Fc1cccc(Nc2nc(N3CCCCCC3)nc(N3CCN(c4ncccc4Cl)CC3)n2)c1 [Compound 78, {4-Azepan-1-yl-6-[4-(3-chloro-pyridin-2-yl)-piperazin-1-yl]-[1,3,5]triazin-2-yl}-(3-fluoro-phenyl)-amine] |
| ≤ 1000 | C[C@@H]1CN(c2ncccc2Cl)CCN1c1nc(Nc2ccc(C(F)(F)F)cc2)nc(OCc2ccccc2C(F)(F)F)n1 [Compound 8, [4-[4-(3-Chloro-pyridin-2-yl)-2-methyl-piperazin-1-yl]-6-(2-trifluoromethyl-benzyloxy)-[1,3,5]triazin-2-yl]-(4-trifluoromethyl-phenyl)-amine (R)] |
| ≤ 1000 | CCCCN(C)c1nc(Nc2cccc(F)c2)nc(N2CCN(c3ncccc3Cl)CC2)n1 [Compound 75, N-Butyl-6-[4-(3-chloro-pyridin-2-yl)-piperazin-1-yl]-N′-(3-fluoro-phenyl)-N-methyl-[1,3,5]triazine-2,4-diamine] |
| ≤ 1000 | C[C@@H]1CN(c2ncccc2Cl)CCN1c1nc(Cl)nc(Nc2ccc(C(C)(C)C)cc2)n1 [Compound 2, (4-tert-Butyl-phenyl)-{4-chloro-6-[4-(3-chloro-pyridin-2-yl)-2-methyl-piperazin-1-yl]-[1,3,5]triazin-2-yl}-amine (R)] |
| ≤ 1000 | CC(C)(C)c1ccc(Nc2nc(OCc3ccccc3C(F)(F)F)nc(N3CCN(c4ccccn4)CC3)n2)cc1 [Compound 11, (4-tert-Butyl-phenyl)-[4-(4-pyridin-2-yl-piperazin-1-yl)-6-(2-trifluoromethyl-benzyloxy)-[1,3,5]triazin-2-yl]-amine] |
| ≤ 1000 | Fc1ccc(Nc2nc(N3CCOCC3)nc(N3CCN(c4ncccc4Cl)CC3)n2)cc1 [Compound 61, {4-[4-(3-Chloro-pyridin-2-yl)-piperazin-1-yl]-6-morpholin-4-yl-[1,3,5]triazin-2-yl}-(4-fluoro-phenyl)-amine] |
| ≤ 1000 | C[C@@H]1CN(c2ncccc2F)CCN1c1nc(Nc2ccc(C(F)(F)F)cc2)nc(OCc2ccccc2C(F)(F)F)n1 [Compound 10, [4-[4-(3-Fluoro-pyridin-2-yl)-2-methyl-piperazin-1-yl]-6-(2-trifluoromethyl-benzyloxy)-[1,3,5]triazin-2-yl]-(4-trifluoromethyl-phenyl)-amine (R)] |
| ≤ 1000 | Cc1ccc(Nc2nc(N3CCOCC3)nc(N3CCN(c4ncccc4Cl)CC3)n2)cc1 [Compound 65, {4-[4-(3-Chloro-pyridin-2-yl)-piperazin-1-yl]-6-morpholin-4-yl-[1,3,5]triazin-2-yl}-p-tolyl-amine] |
